Measurements: patent US11253457B2, “Exopolysaccharide-protein complex, a method of preparing said complex and uses thereof” (INSTITUT UNIV. DE CIÈNCIA I TECNOLOGIA, S.A., priority 2016, dated 2022)

What was measured:
[1] = system: human hepatocellular carcinoma cell line (HepG2); test: MTT tumor cell proliferation assay (HepG2); assay type: cell-based; details: HepG2, positive control
Experimental: The MTT assay was used for measuring the proliferation of the tumor cells. Briefly, human hepatocellular carcinoma cell line (HepG2), human breast adenocarcinoma cell line (MCF7), human lung adenocarcinoma cell line (H1975) and Human melanoma cell line (A375) were seeded at a density of 4×10^4 cells/mL in a volume of 0.1 mL in 96-well plates, respectively. After 24 h, different concentrations of EPCx (1.0, 0.1 and 0.01 mg/ml) were dissolved in the medium was added to each well and incubated for 48 h at 37° C. in a CO2 incubator. 5-Fu (5-fluorouracil) was used as the positive control. After the incubation, 20 μL of MTT solution (5 mg/mL) were added into each well and followed by further incubation for 4-5 h. The culture media were then removed and 100 μL of DMSO was added to each well for 1 h. Absorbance at 570 nm was detected by microplate ELISA reader.

[2] = system: IL-6; test: Real-time PCR of IL-6 mRNA in keratinocytes stressed with LPS; assay type: cell-based, human; details: LPS 10 μg/ml alone
Experimental: (§1) The capacity of EPS to modulate the inflammatory response was evaluated in vitro in human primary keratinocytes (HEK) and human monocyte-like cells (THP-1) stressed with LPS (lipopolysaccharide). The cells were pretreated with different concentrations of exopolysaccharide-protein complex (1, 0.1 and 0.01 mg/ml) for 24 h and with 10 μg/ml of LPS for 24 h. Controls of HEK and THP-1 cells treated only with the different concentrations of exopolysaccharide-protein complex (1.0, 0.1 and 0.01 mg/ml) were also prepared.
(§2) Expression of mRNA for the cytokines IL-6, IL-8, IL-10 and TNF-α was analyzed by real-time PCR and the NF-κB activation was measured using a luciferase reporter gene assay.
(§3) Real-time PCR: Total RNA was extracted with the RNA Isolation Kit (ThermoFischer Scientific) according to the manufacturer's recommendations. 1 ng of RNA was reverse transcribed into complementary DNA (cDNA) using Superscript One-Step RT-PCR kit with platinum Taq according to the instructions (Invitrogen). Quantification rests on the measure of threshold cycles (CT), which are measured at the beginning of the exponential phase of the reaction and on the normalization of the internal standard curve obtained with the reference gene.

[3] = system: IL-8; test: Real-time PCR of IL-8 mRNA in keratinocytes stressed with LPS; assay type: cell-based, human; details: LPS 10 μg/ml alone
Experimental: as §1, §2, §3

[4] = system: TNF-α; test: Real-time PCR of TNF-α mRNA in keratinocytes stressed with LPS; assay type: cell-based, human; details: LPS 10 μg/ml alone
Experimental: as §1, §2, §3

[5] = system: IL-10; test: Real-time PCR of IL-10 mRNA in keratinocytes stressed with LPS; assay type: cell-based, human; details: LPS 10 μg/ml alone
Experimental: as §1, §2, §3

[6] = system: IL-6; test: Real-time PCR of IL-6 mRNA in THP-1 cells stressed with LPS; assay type: cell-based; details: human monocyte-like cells (THP-1), LPS 10 μg/ml alone
Experimental: as §1, §2, §3

[7] = system: IL-8; test: Real-time PCR of IL-8 mRNA in THP-1 cells stressed with LPS; assay type: cell-based; details: human monocyte-like cells (THP-1), LPS 10 μg/ml alone
Experimental: as §1, §2, §3

[8] = system: TNF-α; test: Real-time PCR of TNF-α mRNA in THP-1 cells stressed with LPS; assay type: cell-based; details: human monocyte-like cells (THP-1), LPS 10 μg/ml alone
Experimental: as §1, §2, §3

[9] = system: IL-10; test: Real-time PCR of IL-10 mRNA in THP-1 cells stressed with LPS; assay type: cell-based; details: human monocyte-like cells (THP-1), LPS 10 μg/ml alone
Experimental: as §1, §2, §3

| Molecule | IC50 [1] | Gene expression (mRNA, real-time PCR) IL-6 [2] | Gene expression (mRNA, real-time PCR) IL-8 [3] | Gene expression (mRNA, real-time PCR) TNF-α [4] | Gene expression (mRNA, real-time PCR) IL-10 [5] | Gene expression (mRNA, real-time PCR) IL-6 [6] | Gene expression (mRNA, real-time PCR) IL-8 [7] | Gene expression (mRNA, real-time PCR) TNF-α [8] | Gene expression (mRNA, real-time PCR) IL-10 [9] |
| --- | --- | --- | --- | --- | --- | --- | --- | --- | --- |
| O=c1[nH]cc(F)c(=O)[nH]1 [5-fluorouracil] | 10 µM |  |  |  |  |  |  |  |  |
| lipopolysaccharide [LPS] |  | 62 | 59 | 67 | 7 | 73 | 82 | 67 | 5 |
